# Molecular target: T1, hCRTH2 (Homo sapiens, UniProt Q9Y5Y4)
# T1 sequence (Q9Y5Y4 1-395): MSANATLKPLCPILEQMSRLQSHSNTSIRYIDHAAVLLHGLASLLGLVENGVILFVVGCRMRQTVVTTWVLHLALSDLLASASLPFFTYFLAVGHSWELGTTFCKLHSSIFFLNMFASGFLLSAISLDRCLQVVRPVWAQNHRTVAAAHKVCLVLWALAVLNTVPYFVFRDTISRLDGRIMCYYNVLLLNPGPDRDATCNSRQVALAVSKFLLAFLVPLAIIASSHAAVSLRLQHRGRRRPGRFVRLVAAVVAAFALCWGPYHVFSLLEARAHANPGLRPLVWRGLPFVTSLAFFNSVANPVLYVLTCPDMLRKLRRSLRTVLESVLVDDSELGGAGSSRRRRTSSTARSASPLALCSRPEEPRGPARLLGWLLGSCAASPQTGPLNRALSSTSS
# Design: expressed in transfected cells; host or cells: HEK (human embryonic kidney) cells expressing hCRTH2
# Settings: Radioligand Binding Assay B; 0.7 nM [3H]PGD2, HEK-hCRTH2 membranes
# Experimental: The filters were then washed with 4 mL of the same buffer and residual radioligand bound to the filter was determined by liquid scintillation counting following equilibration in 25 μl Ultima Gold F™ (Unifilter) (Packard).
row,Ki,Compound
1,414 nM,"COC(=O)CCC(=O)N(C1CC1)C1c2ccccc2N(C(=O)c2ccc(Cl)cc2)C2CCCC21 (racemic) [14P, methyl 4-[{cis,cis-4-[(4-chlorophenyl)carbonyl]-2,3,3a,4,9,9a-hexahydro-1H-cyclopenta[b]quinolin-9-yl}(cyclopropyl)amino]-4-oxobutanoate]"
2,45.7 nM,"O=C(O)CCC(=O)N(C1CC1)C1c2ccccc2N(C(=O)OCc2ccc(Cl)cc2)C2CCCC21 (racemic) [21A, 4-{[cis, cis-4-{[(4-chlorobenzyl)oxy]carbonyl}-2,3,3a,4,9,9a-hexahydro-1H-cyclopenta[b]quinolin-9-yl](cyclopropyl)amino}-4-oxobutanoic acid]"
3,9.9 nM,"O=C(O)CCC(=O)N(C1CC1)C1c2ccccc2N(C(=O)c2ccsc2)C2CCCC21 (racemic) [14E, 4-{cyclopropyl[cis,cis-4-(thiophen-3-ylcarbonyl)-2,3,3a,4,9,9a-hexahydro-1H-cyclopenta[b]quinolin-9-yl]amino}-4-oxobutanoic acid]"

# Same assay, conditions: Radioligand Binding Assay B; Table B, rated A-D
row,Ki,Compound
1,20.1 to 200 nM,"CN(C(=O)N1c2ccccc2C(N(C(=O)CCC(=O)O)C2CC2)C2CCCC21)c1ccccc1 (racemic) [23D, 4-(cyclopropyl{cis, cis-4-[methyl(phenyl)carbamoyl]-2,3,3a,4,9,9a-hexahydro-1H-cyclopenta[b]quinolin-9-yl}amino)-4-oxobutanoic acid]"
2,201 to 7500 nM,"COC(=O)CCC(=O)N(C1CC1)C1c2ccc(F)cc2N(C(=O)c2cccnc2)C2CCCC21 (racemic) [16A, Methyl 4-{cyclopropyl[cis,cis-6-fluoro-4-(pyridin-3-ylcarbonyl)-2,3,3a,4,9,9a-hexahydro-1H-cyclopenta[b]quinolin-9-yl]amino}-4-oxobutanoate]"
3,20.1 to 200 nM,"CC(OC(=O)N1c2ccccc2C(N(C(=O)CCC(=O)O)C2CC2)C2CCCC21)c1ccccc1 (racemic) [21F, 4-(cyclopropyl{cis, cis-4-[(1-phenylethoxy)carbonyl]-2,3,3a,4,9,9a-hexahydro-1H-cyclopenta[b]quinolin-9-yl}amino)-4-oxobutanoic acid]"
4,20.1 to 200 nM,"O=C(O)CCC(=O)N(C1CC1)C1c2ccccc2N(C(=O)NCc2ccccc2)C2CCCC21 (racemic) [23C, 4-{[cis, cis-4-(benzylcarbamoyl)-2,3,3a,4,9,9a-hexahydro-1H-cyclopenta[b]quinolin-9-yl](cyclopropyl)amino}-4-oxobutanoic acid]"
5,201 to 7500 nM,"COC(=O)CCC(=O)N(C1CC1)C1c2ccccc2N(C(=O)c2cc3ccccc3n2C)C2CCCC21 (racemic) [14N, methyl 4-(cyclopropyl{cis,cis-4-[(1-methyl-1H-indol-2-yl)carbonyl]-2,3,3a,4,9,9a-hexahydro-1H-cyclopenta[b]quinolin-9-yl}amino)-4-oxobutanoate]"
6,20.1 to 200 nM,"COc1ccc(C(=O)N2c3ccccc3C(N(C(=O)CCC(=O)O)C3CC3)C3CCCC32)cc1 (racemic) [14L, 4-(cyclopropyl{cis,cis-4-[(4-methoxyphenyl)carbonyl]-2,3,3a,4,9,9a-hexahydro-1H-cyclopenta[b]quinolin-9-yl}amino)-4-oxobutanoic acid]"
7,1 to 5 nM,"O=C(O)CCC(=O)N(C1CC1)C1c2ccc(F)cc2N(C(=O)c2ccc(Oc3ccccc3)cc2)C2CCCC21 (racemic) [16E, 4-{cyclopropyl[cis,cis-6-fluoro-4-[(4-phenoxyphenyl)carbonyl]-2,3,3a,4,9,9a-hexahydro-1H-cyclopenta[b]quinolin-9-yl}amino)-4-oxobutanoic acid]"
8,201 to 7500 nM,"CN(C(=O)/C=C/C(=O)O)C1c2ccccc2N(C(=O)c2ccccc2)C2CCCC12 (racemic) [17P, (2E)-4-[[cis,cis-4-benzoyl-2,3,3a,4,9,9a-hexahydro-1H-cyclopenta[b]quinolin-9-yl]methylamino]-4-oxo-2-butenoic acid]"
9,201 to 7500 nM,"COC(=O)CCC(=O)N(C1CC1)C1c2ccccc2N(C(=O)c2ccc(Cl)cc2)C2CCCC21 (racemic) [14P, methyl 4-[{cis,cis-4-[(4-chlorophenyl)carbonyl]-2,3,3a,4,9,9a-hexahydro-1H-cyclopenta[b]quinolin-9-yl}(cyclopropyl)amino]-4-oxobutanoate]"
10,201 to 7500 nM,"O=C(O)/C=C/C(=O)N(CC1CC1)C1c2ccccc2N(C(=O)c2ccccc2)C2CCCC12 (racemic) [17H, (2E)-4-[[cis,cis-4-benzoyl-2,3,3a,4,9,9a-hexahydro-1H-cyclopenta[b]quinolin-9-yl](cyclopropylmethyl)amino]-4-oxo-2-butenoic acid]"
11,20.1 to 200 nM,"O=C(O)CCC(=O)N(C1CC1)C1c2ccccc2N(C(=O)OCc2ccc(Cl)cc2)C2CCCC21 (racemic) [21A, 4-{[cis, cis-4-{[(4-chlorobenzyl)oxy]carbonyl}-2,3,3a,4,9,9a-hexahydro-1H-cyclopenta[b]quinolin-9-yl](cyclopropyl)amino}-4-oxobutanoic acid]"
12,20.1 to 200 nM,"COc1ccc(COC(=O)N2c3ccccc3C(N(C(=O)CCC(=O)O)C3CC3)C3CCCC32)cc1 (racemic) [21E, 4-{cyclopropyl[cis, cis-4-{[(4-methoxybenzyl)oxy]carbonyl}-2,3,3a,4,9,9a-hexahydro-1H-cyclopenta[b]quinolin-9-yl]amino}-4-oxobutanoic acid]"
13,201 to 7500 nM,"CC(C)(C)COC(=O)N1c2ccccc2C(N(C(=O)CCC(=O)O)C2CC2)C2CCCC21 (racemic) [21H, 4-(cyclopropyl{cis, cis-4-[(2,2-dimethylpropoxy)carbonyl]-2,3,3a,4,9,9a-hexahydro-1H-cyclopenta[b]quinolin-9-yl}amino)-4-oxobutanoic acid]"
14,20.1 to 200 nM,"4-{cyclopropyl[cis,cis-6-fluoro-4- (phenylcarbonyl)-2,3,3a,4,9,9a- hexahydro-1H- cyclopenta[b]quinolin-9-yl]amino}- 4-oxobutanoic acid [16D]"
15,5.1 to 20 nM,"O=C(O)CCC(=O)N(C1CC1)C1c2ccccc2N(C(=O)c2ccsc2)C2CCCC21 (racemic) [14E, 4-{cyclopropyl[cis,cis-4-(thiophen-3-ylcarbonyl)-2,3,3a,4,9,9a-hexahydro-1H-cyclopenta[b]quinolin-9-yl]amino}-4-oxobutanoic acid]"

# The next lines start with the compound.
row,Compound,Ki
1,"COC(=O)CCC(=O)N(C1CC1)C1c2ccc(F)cc2N(C(=O)OCc2ccccc2)C2CCCC21 (racemic) [compound 15, Benzyl cis,cis-9-[cyclopropyl(4-methoxy-4-oxobutanoyl)amino]-6-fluoro-1,2,3,3a,9,9a-hexahydro-4H-cyclopenta[b]quinoline-4-carboxylate]",20.1 to 200 nM
2,"O=C(O)CCC(=O)N(c1ccccc1)C1c2ccccc2N(C(=O)c2cccnc2)C2CCCC21 (racemic) [12D, 4-oxo-4-{phenyl[cis,cis-4-(pyridin-3-ylcarbonyl)-2,3,3a,4,9,9a-hexahydro-1H-cyclopenta[b]quinolin-9-yl]amino}butanoic acid]",5.1 to 20 nM
3,"O=C(O)CCC(=O)N(C1CC1)[C@@H]1c2ccccc2N(C(=O)OCc2ccccc2)[C@@H]2CCCC[C@@H]21 (racemic) [compound 28, 4-[{cis,cis-10-[(Benzyloxy)carbonyl]-1,2,3,4,4a,9,9a,10-octahydroacridin-9-yl}(cyclopropyl)amino]-4-oxobutanoic acid]",20.1 to 200 nM
4,"O=C(O)CCC(=O)N(c1ccccc1)C1c2ccccc2N(C(=O)c2ccccc2)C2CCCC21 (racemic) [12E, 4-oxo-4-{phenyl[cis,cis-4-(phenylcarbonyl)-2,3,3a,4,9,9a-hexahydro-1H-cyclopenta[b]quinolin-9-yl]amino}butanoic acid]",5.1 to 20 nM
5,"O=C(O)COC(=O)N(C1CC1)[C@@H]1c2ccccc2N(C(=O)c2ccccc2)[C@@H]2CCC[C@@H]21 (racemic) [compound 30, ({Cyclopropyl[cis,cis-4-(phenylcarbonyl)-2,3,3a,4,9,9a-hexahydro-1H-cyclopenta[b]quinolin-9-yl]carbamoyl}oxy)acetic acid]",5.1 to 20 nM
6,"O=C(O)COC(=O)N(C1CC1)C1c2ccccc2N(c2nnc(-c3ccccc3)o2)C2CCCC21 (racemic) [compound 37, ({Cyclopropyl[cis,cis-4-(5-phenyl-1,3,4-oxadiazol-2-yl)-2,3,3a,4,9,9a-hexahydro-1H-cyclopenta[b]quinolin-9-yl]carbamoyl}oxy)acetic acid]",5.1 to 20 nM
7,"COC(=O)CCC(=O)N(C1CC1)C1c2ccccc2N(C(=O)c2ccc(OC(F)(F)F)cc2)C2CCC21 (racemic) [compound 26, Methyl 4-{cyclopropyl[cis,cis-3-{[4-(trifluoromethoxy)phenyl]carbonyl}-1,2,2a,3,8,8a-hexahydrocyclobuta[b]quinolin-8-yl]amino}-4-oxobutanoate]",20.1 to 200 nM
8,"CCN(C(=O)CCC(=O)O)[C@@H]1c2ccccc2N(C(=O)OCc2ccccc2)[C@@H]2CCC[C@H]12 (racemic) [compound 13, 4-[{cis,cis-4-[(Benzyloxy)carbonyl]-2,3,3a,4,9,9a-hexahydro-1H-cyclopenta[b]quinolin-9-yl}(ethyl)amino]-4-oxobutanoic acid]",5.1 to 20 nM
9,"CCN(c1nc(C(=O)O)cs1)[C@@H]1c2ccccc2N(C(=O)OCc2ccccc2)[C@@H]2CCC[C@H]12 (racemic) [compound 39, 2-[{cis,cis-4-[(Benzyloxy)carbonyl]-2,3,3a,4,9,9a-hexahydro-1H-cyclopenta[b]quinolin-9-yl}(ethyl)amino]-1,3-thiazole-4-carboxylic acid]",20.1 to 200 nM
10,"CCN(C(=O)CCC(=O)O)C1c2ccccc2N(C(=O)c2ccc(OC(F)(F)F)cc2)C2CCCC12 (racemic) [13C, 4-{ethyl [cis,cis-4-{[4-(trifluoromethoxy)phenyl]carbonyl}-2,3,3a,4,9,9a-hexahydro-1H-cyclopenta[b]quinolin-9-yl]amino}-4-oxobutanoic acid]",5.1 to 20 nM
11,"CCN(C(=O)CCC(=O)O)C1c2ccccc2N(C(=O)c2ccccc2)C2CCCC12 (racemic) [13D, 4-{ethyl[cis,cis-4-(phenylcarbonyl)-2,3,3a,4,9,9a-hexahydro-1H-cyclopenta[b]quinolin-9-yl]amino}-4-oxobutanoic acid]",5.1 to 20 nM
12,"COC(=O)CCC(=O)N(c1ccccc1)C1c2ccccc2N(C(=O)c2cccnc2)C2CCCC21 (racemic) [12B, methyl 4-oxo-4-{phenyl[cis, cis-4-(pyridin-3-ylcarbonyl)-2,3,3a,4,9,9a-hexahydro-1H-cyclopenta[b]quinolin-9-yl]amino}butanoate]",20.1 to 200 nM
